In US4666931A, “Benzofuran derivatives useful in treating diabetic complications” (Kaken Pharmaceutical Co., Ltd., priority 1984, dated 1987):
Where two headings read alike, the source gives them in different places. Blank lines part the entries; values can stand above or below the compound they belong to.

Assays:
[1] = target: T1, aldose reductase from rat lens (Rattus norvegicus, UniProt P07943); experiment: Aldose reductase inhibiting activity; assay type: biochemical; details: DL-glyceraldehyde substrate, Table 2, read-out: IC50 (50% inhibition concentration in M)
T1 construct: the supernatant was prepared as the crude enzyme solution; from tissue; host or cells: lens of male Wistar rats, 10,000 g supernatant of homogenate (crude enzyme)
Protocol: Wistar male rats were sacrificed by decapitation and the lenses were taken out to be homogenized with a 0.1M phosphate buffer [pH 6.8, containing 1 mM of mercaptoethanol and 1 mM of nicotinamide-adenine dinucleotide phosphate (NADP)]. The homogenate was then centrifuged at 10,000 g for 15 minutes and the supernatant was prepared as the crude enzyme solution.

mice = experiment: Acute toxicity test in mice (oral); details: mice, oral, up to 3 g/kg
Protocol: (§1) Acute toxicity test in mice was carried out on the benzofuran derivatives of the compound Nos. 3, 5, 9, 21, 23, 26, 29 and 34.

[2] = Acute toxicity test in mice (oral); details: mouse, in vivo, po
Protocol: as §1

[3] = tested on: aggregation of the washed rabbit platelet by thrombin; experiment: Platelet aggregation inhibiting activity (washed rabbit platelet, thrombin); assay type: cell-based; details: for IC50: Oryctolagus cuniculus, Platelet; for platelet aggregation inhibiting activity relative to Persantin: compared with Persantin (dipyridamole)
Protocol: Blood samples were collected from the auricular blood vessel of rabbits (white local breed), and washed platelets were prepared therefrom by the method of Baenziger et al. (N. L. Baenziger and P. W. Majerus, Methods Enzymol., 31, 149 to 155 (1974). The platelets were suspended in a 15 mM Tris-hydrochloric acid buffer with a final concentration of 6×10^8 cells/ml (Tris: tris(hydroxymethyl)aminomethane). Each test compound of the compound Nos. 5, 8, 9, 11, 23, 29, 30 and 33 and Persantin® was added thereto and incubation was carried out at 37° C. for 2 minutes. Then the platelets were stimulated by addition of thrombin (0.2 unit/ml of final concentration; made by Mochida Pharmaceutical Co.) and the aggregation inhibiting activity was estimated by the observation of the aggregation reaction using an aggregometer (made by Briston Co.).
The results are shown in Table 3 in terms of IC50 (50% inhibiton concentration in M).

[4] = tested on: production of malondialdehyde from arachidonic acid by rabbit platelets; experiment: Arachidonic acid metabolism inhibiting activity: production of malondialdehyde from arachidonic acid by rabbit platelets; assay type: cell-based; details: Oryctolagus cuniculus, Platelet, arachidonic acid 0.2 mM, read-out: concentration showing 50% inhibition against the production of malondialdehyde from arachidonic acid
Protocol: Washed rabbit platelets prepared as in the platelet aggregation inhibiting activity test were suspended in 15 mM Tris-hydrochloric acid buffer with a final concentration of 1×10^8 cell/ml, to which each test compound of the compound Nos. 8, 13, 14, 19, 20, 23, 29, 30 and 33 were added and the resultant was preincubated at 37° C. for five minutes. Then arachidonic acid (a final concentration: 0.2 mM, made by Sigma Chemical Co.) was added thereto and the mixture was preincubated for 1 minute. An amount of the produced malondialdehyde was measured according to the thiobarbiturates method (Ed. Aoki and Shibata, Ketsuekigaku Kenkyukensaho, P 441 to 447).

cyclooxygenase = experiment: Cyclooxygenase inhibition: malondialdehyde production from arachidonic acid, 9000 G supernatant of lung homogenate from guinea pig; assay type: biochemical; details: guinea pig lung 9000 G supernatant, compared with aspirin
Protocol: Lung from guinea pig was washed with physiological saline and homogenized in 0.1M Tris-hydrochloric acid buffer to prepare a supernatant by cooled centrifugation (9000 G).
The inhibiting activity against cyclooxygenase was measured by using the 9000 G supernatant as a source of cyclooxygenase in the presence of 1 mM epinephiline.

[5] = washed rabbit platelets, thrombin 0.2 unit/ml, 37° C., Table 3, read-out: IC50 (50% inhibition concentration in M)
[6] = range for nine compounds, read-out: concentration showing 50% inhibition against the aggregation of the washed rabbit platelet by thrombin

IC50 [1]: 0.2 µM
Structure (SMILES): COc1ccc(S(=O)(=O)NCC(=O)O)c2cc(C(C)=O)oc12 [Compound 1, 2-acetyl-4-(N-carboxymethylsulfamoyl)-7-methoxybenzofuran]

IC50 [1]: 0.1 µM
Structure (SMILES): CCOc1ccc(S(=O)(=O)NCC(=O)O)c2cc(C(C)=O)oc12 [Compound 2, 2-acetyl-4-(N-carboxymethylsulfamoyl)-7-ethoxybenzofuran]

Structure (SMILES): CCCOc1ccc(S(=O)(=O)NCC(=O)O)c2cc(C(C)=O)oc12 [Compound 3, 2-acetyl-4-(N-carboxymethylsulfamoyl)-7-n-propoxybenzofuran]
death up to the dose of 3 g/kg body weight (mice): no death
LD50 at 336 h [2]: > 3000 mg/kg
IC50 [1]: 0.06 µM

Structure (SMILES): CCCCOc1ccc(S(=O)(=O)NCC(=O)O)c2cc(C(C)=O)oc12 [Compound 4, 2-acetyl-4-(N-carboxymethylsulfamoyl)-7-n-butoxybenzofuran]
IC50 [1]: 0.04 µM

IC50 [1]: 0.05 µM
Structure (SMILES): CCCCCCOc1ccc(S(=O)(=O)NCC(=O)O)c2cc(C(C)=O)oc12 [Compound 6, 2-acetyl-4-(N-carboxymethylsulfamoyl)-7-n-hexyloxybenzofuran]

IC50 [3, 5]: 150 µM
IC50 [1]: 0.03 µM
Structure (SMILES): CCCCCCCOc1ccc(S(=O)(=O)NCC(=O)O)c2cc(C(C)=O)oc12 [Compound 7, 2-acetyl-4-(N-carboxymethylsulfamoyl)-7-n-heptyloxybenzofuran]

IC50 [4]: 10 to 100 µM
IC50 [3, 6]: 20 to 200 µM
IC50 [3, 5]: 130 µM
inhibition against malondialdehyde production relative to aspirin (cyclooxygenase): equivalent to or more than
IC50 [1]: 0.2 µM
Structure (SMILES): CC(=O)c1cc2c(S(=O)(=O)NCC(=O)O)ccc(OCC(=O)O)c2o1 [Compound 8, 2-acetyl-4-(N-carboxymethylsulfamoyl)-7-(carboxymethoxy)benzofuran]
platelet aggregation inhibiting activity relative to Persantin [3]: equivalent to or more than

Structure (SMILES): CCCCOc1ccc(S(=O)(=O)N(C)C(C)C(=O)O)c2cc(C(C)=O)oc12 (stereo not shown) [Compound 10, 2-acetyl-4-(N-methyl-N-(1-carboxyethyl)sulfamoyl)-7-n-butoxybenzofuran]
IC50 [3, 6]: 20 to 200 µM
IC50 [3, 5]: 160 µM
platelet aggregation inhibiting activity relative to Persantin [3]: equivalent to or more than
IC50 [1]: 7 µM

Structure (SMILES): CCCCOc1ccc(S(=O)(=O)NC(C)C(=O)O)c2cc(C(C)=O)oc12 (stereo not shown) [Compound 11, 2-acetyl-4-(N-(1-carboxyethyl)sulfamoyl)-7-n-butoxybenzofuran]
IC50 [3, 6]: 20 to 200 µM
IC50 [3, 5]: 160 µM
platelet aggregation inhibiting activity relative to Persantin [3]: equivalent to or more than
IC50 [1]: 5 µM

IC50 [1]: 0.2 µM
Structure (SMILES): O=C(O)CNS(=O)(=O)c1ccc(OCC(=O)O)c2oc(C(=O)O)cc12 [Compound 12, 2-carboxy-4-(N-carboxymethylsulfamoyl)-7-(carboxymethoxy)benzofuran]

IC50 [4]: 10 to 100 µM
inhibition against malondialdehyde production relative to aspirin (cyclooxygenase): equivalent to or more than
IC50 [1]: 0.1 µM
Structure (SMILES): COc1ccc(S(=O)(=O)NCC(=O)O)c2cc(C(=O)O)oc12 [Compound 13, 2-carboxy-4-(N-carboxymethylsulfamoyl)-7-methoxybenzofuran]

IC50 [4]: 10 to 100 µM
inhibition against malondialdehyde production relative to aspirin (cyclooxygenase): equivalent to or more than
IC50 [1]: 0.07 µM
Structure (SMILES): CCOc1ccc(S(=O)(=O)NCC(=O)O)c2cc(C(=O)O)oc12 [Compound 14, 2-carboxy-4-(N-carboxymethylsulfamoyl)-7-ethoxybenzofuran]

IC50 [1]: 0.5 µM
Structure (SMILES): CC(=O)c1cc2c(S(=O)(=O)NCC(=O)O)ccc(C)c2o1 [Compound 15, 2-acetyl-4-(N-carboxymethylsulfamoyl)-7-methylbenzofuran]

IC50 [1]: 0.4 µM
Structure (SMILES): CCC(C)c1ccc(S(=O)(=O)NCC(=O)O)c2cc(C(C)=O)oc12 (stereo not shown) [Compound 16, 2-acetyl-4-(N-carboxymethylsulfamoyl)-7-sec-butylbenzofuran]

IC50 [1]: 2 µM
Structure (SMILES): CC(=O)c1cc2c(S(=O)(=O)NCC(=O)O)c3c(cc2o1)OCO3 [Compound 17, 2-acetyl-4-(N-carboxymethylsulfamoyl)-5,6-methylenedioxybenzofuran]

IC50 [1]: 5 µM
Structure (SMILES): COc1ccc(S(=O)(=O)NCC(=O)O)c2oc(C(C)=O)cc12 [Compound 18, 2-acetyl-4-methoxy-7-(N-carboxymethylsulfamoyl)benzofuran]

IC50 [4]: 10 to 100 µM
inhibition against malondialdehyde production relative to aspirin (cyclooxygenase): equivalent to or more than
IC50 [1]: 2 µM
Structure (SMILES): COc1ccc(S(=O)(=O)NCC(=O)O)c2cc(C3(C)NC(=O)NC3=O)oc12 (stereo not shown) [Compound 19, 2-(4-methyl-2,5-dioxoimidazolidine-4-yl)-4-(N-carboxymethylsulfamoyl)-7-methoxybenzofuran]

IC50 [4]: 10 to 100 µM
inhibition against malondialdehyde production relative to aspirin (cyclooxygenase): equivalent to or more than
IC50 [1]: 0.3 µM
Structure (SMILES): COc1c(S(=O)(=O)NCC(=O)O)cc(S(=O)(=O)NCC(=O)O)c2cc(C3(C)NC(=O)NC3=O)oc12 (stereo not shown) [Compound 20, 2-(4-methyl-2,5-dioxoimidazolidine-4-yl)-4,6-di(N-carboxymethylsulfamoyl)-7-methoxybenzofuran]

Structure (SMILES): CCc1oc2ccc([N+](=O)[O-])cc2c1S(=O)(=O)NCC(=O)O [Compound 21, 2-ethyl-3-(N-carboxymethylsulfamoyl)-5-nitrobenzofuran]
death up to the dose of 3 g/kg body weight (mice): no death
LD50 at 336 h [2]: > 3000 mg/kg
IC50 [1]: 0.05 µM

IC50 [1]: 0.05 µM
Structure (SMILES): CCc1oc2ccc(NC(C)=O)cc2c1S(=O)(=O)NCC(=O)O [Compound 22, 2-ethyl-3-(N-carboxymethylsulfamoyl)-5-acetylaminobenzofuran]

IC50 [1]: 0.03 µM
Structure (SMILES): COc1ccc(COc2ccc(S(=O)(=O)NCC(=O)O)c3cc(C(C)=O)oc23)cc1 [Compound 24, 2-acetyl-4-(N-carboxymethylsulfamoyl)-7-p-methoxybenzyloxybenzofuran]

IC50 [1]: 0.2 µM
Structure (SMILES): CC(=O)c1cc2c(S(=O)(=O)NCC(=O)O)ccc(OCC(C)Cl)c2o1 (stereo not shown) [Compound 25, 2-acetyl-4-(N-carboxymethylsulfamoyl)-7-(2-chloropropyloxy)benzofuran]

IC50 [1]: 0.1 µM
Structure (SMILES): CC(=O)c1cc2c(S(=O)(=O)NCC(=O)O)ccc(OCC#N)c2o1 [Compound 27, 2-acetyl-4-(N-carboxymethylsulfamoyl)-7-cyanomethyloxybenzofuran]

IC50 [1]: 0.08 µM
Structure (SMILES): CC(=O)c1cc2c(S(=O)(=O)NCC(=O)O)ccc(O)c2o1 [Compound 28, 2-acetyl-4-(N-carboxymethylsulfamoyl)-7-hydroxybenzofuran]

IC50 [4]: 10 to 100 µM
IC50 [3, 6]: 20 to 200 µM
IC50 [3, 5]: 30 µM
inhibition against malondialdehyde production relative to aspirin (cyclooxygenase): equivalent to or more than
IC50 [1]: 0.04 µM
Structure (SMILES): CC(=O)c1cc2c(S(=O)(=O)NCC(=O)O)ccc(OCc3ccc(Cl)cc3)c2o1 [Compound 30, 2-acetyl-4-(N-carboxymethylsulfamoyl)-7-p-chlorobenzyloxybenzofuran]
platelet aggregation inhibiting activity relative to Persantin [3]: equivalent to or more than

IC50 [1]: 0.05 µM
Structure (SMILES): C=CCOc1ccc(S(=O)(=O)NCC(=O)O)c2cc(C(C)=O)oc12 [Compound 31, 2-acetyl-4-(N-carboxymethylsulfamoyl)-7-allyloxybenzofuran]

IC50 [1]: 0.03 µM
Structure (SMILES): C=CCCOc1ccc(S(=O)(=O)NCC(=O)O)c2cc(C(C)=O)oc12 [Compound 32, 2-acetyl-4-(N-carboxymethylsulfamoyl)-7-(3-butenyloxy)benzofuran]

IC50 [4]: 10 to 100 µM
IC50 [3, 6]: 20 to 200 µM
IC50 [3, 5]: 20 µM
inhibition against malondialdehyde production relative to aspirin (cyclooxygenase): equivalent to or more than
IC50 [1]: 0.8 µM
Structure (SMILES): COc1ccc(COc2ccc(S(=O)(=O)N(CC(=O)O)Cc3ccc(OC)cc3)c3cc(C(C)=O)oc23)cc1 [Compound 33, 2-acetyl-4-(N-p-methoxybenzyl-N-carboxymethylsulfamoyl)-7-p-methoxybenzyloxybenzofuran]
platelet aggregation inhibiting activity relative to Persantin [3]: equivalent to or more than

IC50 [1]: 0.7 µM
Structure (SMILES): CC(=O)c1cc2c(S(=O)(=O)N(CC(=O)O)Cc3ccccc3)ccc(OCc3ccccc3)c2o1 [Compound 35, 2-acetyl-4-(N-benzyl-N-carboxymethylsulfamoyl)-7-benzyloxybenzofuran]

IC50 [3, 5]: 200 µM
Structure (SMILES): OCCN(CCO)c1nc(N2CCCCC2)c2nc(N(CCO)CCO)nc(N3CCCCC3)c2n1 [Persantin ®, dipyridamole, reference compound]
